Reference: paper PMC7961996, “Small Immunomodulatory Molecules as Potential Therapeutics in Experimental Murine Models of Acute Lung Injury (ALI)/Acute Respiratory Distress Syndrome (ARDS)” (International Journal of Molecular Sciences, 2021)

Experiments:
[1] = Pharmacokinetic study, bronchoalveolar lavage fluid (BALF); type: in vivo, Sprague Dawley rats
Description: All PK studies were also conducted with 8–10-week-old male and female Sprague Dawley rats. An additional nine animals/sex/dose were used for PK analysis and blood (approximately 0.3 mL each) was collected from each rat on days 1 and 3 of the treatment period at time points of 5, 30, 60, 90, 120, and 180 min, and 6, 12 h, and 24 h post dose that were randomized to provide a total of three samples/sex for each time point. Samples were collected by jugular venipuncture and the samples were collected into tubes containing the anticoagulant, K3EDTA. The collection of BALF was limited to the terminal time points of 6 h, 12 h, and 24 h. AVR-48 concentrations in the blood and BALF were determined using LC/MS/MS analysis developed in house. PK parameters were estimated using Phoenix pharmacokinetic software (Certara, Princeton, NJ, USA) using a non-compartmental approach consistent with the IV bolus injection.

LPS-induced ALI mice = experiment: LPS-induced ALI murine model; type: in vivo, C57BL6/J mice
Description: For the mouse efficacy studies, both AVR-25 and AVR-48 were reconstituted in 0.9% sterile normal saline to give a final concentration of 10 mg/kg; 125 µL was administered intraperitoneally (IP) for hyperoxia- and LPS- induced lung injury, and IV via the lateral tail vein for CLP-induced lung injury. Imipenem (Primaxin®) was formulated in sterile 0.9% saline solution and administered subcutaneously (SC) at a dose of 5 mg/kg to mice in a 0.2 mL volume near the dorsal scapular region for CLP-induced lung injury study. LPS was dissolved in sterile 0.9% saline solution and 100 µL was administered intratracheally for the ALI study.
Three models of ALI were used in the current study: hyperoxia-, LPS-, and CLP-induced lung injury: LPS-induced ALI was induced by administering a one-time intratracheal instillation of LPS (100 µg in a volume of 100 µL). Animals were sacrificed after 24 h following LPS administration while two doses of AVR-25 and AVR-48 were administered (10 mg/kg, IP) at 4 h and 12 h following LPS dosing. Hyperoxia-induced ALI was initiated by keeping the mice in cages in airtight polypropylene chamber exposed to hyperoxia (100% oxygen) for 48 h, following a standard protocol. Two doses of AVR-25 and AVR-48 were administered (10 mg/kg, IP) at 4 h and 12 h following hyperoxia exposure, and mice were sacrificed after 48 h.
At the end of the experimental time points for all the above groups, the mice were euthanized with an overdose of a cocktail of xylazine (100 mg/kg)/ketamine (10 mg/kg, IP) and BALF and lung tissues were harvested for further analysis. Male mice were used for all the ALI experiments.
BALF was obtained from the anesthetized mice by cannulating the upper part of the trachea with a blunt 22-gauge needle and then by lavaging three times with 1.0 mL of cold PBS (pH 7.4). The fluid recovery rate was about 90%. Lavaged samples were kept on ice, and the BALF was centrifuged at 4 °C. Total cell counts in BALF were determined using the TC20 automated cell counter (Bio-Rad Laboratories, Inc., Hercules, CA, USA). The differential cell counts were performed on cytospin preparations after staining with the Hema 3 differential Staining kit (Fisher Scientific, Kalamazoo, MI, USA). Total protein concentration in the BALF was measured using the Pierce^TM BCA assay kit (Fisher Scientific Co, Houston, TX, USA), as previously described.
Lung endothelium permeability was determined by measuring the accumulation of Evans blue in the lungs, as previously described. In brief, Evans blue dye (EBD) solution (Sigma-Aldrich, Inc., St. Louis, MO, USA, 5 mg/mL) was injected into the tail vein at a concentration of 50 mg/kg before 30 min of the experimental time point. At the experimental time points, lungs were excised and weighed. EBD was extracted in 2 mL formamide kept in a water bath at 60 °C for 3 h, and the samples were centrifuged at 500 g for 10 min. The absorption of light at 595 nm was measured spectrophotometrically (Microplate reader, Bio-Rad Laboratories, Hercules, CA, USA) with the supernatants.
Interleukin (IL)-6, IL-1β, and IL-10 were quantified on BALF while E-selectin was quantified in lung homogenate using commercially available DuoSet® ELISA kits (R&D Systems, Minneapolis, MN, USA) according to the manufacturer’s instructions, as previously described. Briefly, Nalgene Nunc Maxisorp™ plates were coated overnight with antibodies to IL-6 (2 µg/mL), IL-1β (2 µg/mL) IL-10 (2 µg/mL), or E-selectin (2 µg/mL) and the following morning plates were washed and blocked for 2 h. Samples were added to the wells at various dilutions and then incubated with detection antibody for 2 h. Plates were subsequently washed, and streptavidin-HRP conjugate antibody was added to each well for 20 min. […]

CLP-induced sepsis mice = experiment: CLP-induced sepsis survival study; type: in vivo, C57BL6/J mice; settings: AVR-48 10 mg/kg IV at 16 h and 24 h after CLP, imipenem 5 mg/kg SC at 30 min; 10 days; CLP alone 100% mortality within 72 h
Description: For CLP-induced lung injury, CLP was performed as previously described by us. As antibiotics are the standard of care in sepsis patients, one dose of imipenem was given SC at 5 mg/kg 30 min after the procedure, followed by two doses of AVR-48 (10 mg/kg, IV) at 16 h and 24 h following the surgery, and sacrificed after 72 h. The sham mice (controls) had the abdominal cavity opened, the cecum was not perforated, and the peritoneum was stitched back.
For the survival study of CLP-induced ALI, mice were injected with 2 doses of AVR-48 (IV) followed by 1 dose of imipenem (SC) as described in the CLP methodology, and allowed to survive for 10 days. Sterility was maintained throughout the procedure by operating the animals under a laminar hood. Following the procedure, the animals were returned back to the animal room for subsequent monitoring and follow up. The body temperature was recorded every 24h and feeding and social behavior was also observed. They were fed with semisolid food for 48h before resuming their regular chow diet. All mice were sacrificed after 10 days. (N=3 for sham and 5 for the rest of the groups). A CLP + imipenem group was not done in this study, as we have published this group […]
imipenem, better than CLP + imipenem alone. Histopathology of the vital organs was performed and scored as previously published (37, 38) and noted in the methods section of this paper.

[2] = 10 mg/kg IP at 4 h and 12 h after LPS, 24 h, vs untreated ALI mice

CC(=O)N[C@H]1[C@H](Oc2ccc([N+](=O)[O-])cc2)O[C@H](CO)[C@@H](O)[C@@H]1O [AVR-48, N-((2S,3R,4R,5S,6R)-4,5-dihydroxy-6-(hydroxymethyl)-2-(4-nitrophenoxy)tetrahydro-2H-pyran-3-yl) acetamide]
AVR-48 in BALF ([1]; 6 h post administration): measurable concentrations | Kp at 6 h ([1]; Sprague Dawley, rat, BALF (bronchoalveolar lavage fluid) relative to plasma, intravenous, 6 h time point, read-out: BALF-to-plasma ratio): 2.81 to 9.08 | AVR-48 in BALF ([1]; by 12 h): below the limit of detection | pro-inflammatory cytokines IL-1β and IL-6 levels in BALF and lung tissues (LPS-induced ALI mice; 10 mg/kg IP at 4 h and 12 h after LPS, 24 h, ELISA, Western blot): decreased | neutrophil cell counts in BALF (LPS-induced ALI mice; [2]): decreased counts | total inflammatory cell counts in BALF (LPS-induced ALI mice; [2]): decreased counts | Evans Blue dye leak concentration in the lungs (LPS-induced ALI mice; 10 mg/kg IP x2): diminished levels | expression of lung adhesion molecules ICAM-1, VCAM-1, and E-selectin in whole lung tissue (LPS-induced ALI mice; 10 mg/kg IP x2): decreased expression | total proteins in BALF (pulmonary edema) (LPS-induced ALI mice; 10 mg/kg IP x2): diminished levels | lung injury score (H&E) (LPS-induced ALI mice; 10 mg/kg IP x2, 0-4 scoring, vs ALI mice without treatment): decreased lung injury scores | IL-10 levels in BALF (LPS-induced ALI mice; 10 mg/kg IP x2, ELISA, vs non-treated ALI mice): further increase | expression of cleaved caspase-3 in lungs (lung cell death) (LPS-induced ALI mice; 10 mg/kg IP x2, Western blot): reduced expression | expression of endothelial AJ proteins VE-cadherin and β-catenin in whole lungs (LPS-induced ALI mice; 10 mg/kg IP x2, Western blot): increased expression | survival (CLP-induced sepsis mice): 80%
